Results: ChEMBL document CHEMBL5727767, “1,2-substituted cyclopentanes as orexin receptor antagonists” (2020)

Assays:
[1] = molecular target: T1, Orexin/Hypocretin receptor type 1 (Homo sapiens, UniProt O43613); format: cell-based
T1 sequence (O43613 whole entry): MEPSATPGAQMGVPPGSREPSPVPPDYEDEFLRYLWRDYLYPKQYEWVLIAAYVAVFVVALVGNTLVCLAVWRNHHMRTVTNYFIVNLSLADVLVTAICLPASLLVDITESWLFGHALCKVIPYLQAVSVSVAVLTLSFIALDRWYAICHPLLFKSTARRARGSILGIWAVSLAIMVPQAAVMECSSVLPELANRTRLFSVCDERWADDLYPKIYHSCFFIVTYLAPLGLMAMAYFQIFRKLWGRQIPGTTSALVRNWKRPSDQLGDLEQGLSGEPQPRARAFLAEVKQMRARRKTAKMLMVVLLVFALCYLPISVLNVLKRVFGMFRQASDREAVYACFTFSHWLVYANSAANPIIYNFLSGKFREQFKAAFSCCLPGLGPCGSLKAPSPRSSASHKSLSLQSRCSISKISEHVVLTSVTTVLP

Orexin receptor type 2 = molecular target: T2, Orexin receptor type 2 (Homo sapiens, UniProt O43614); format: cell-based
T2 sequence (O43614 whole entry): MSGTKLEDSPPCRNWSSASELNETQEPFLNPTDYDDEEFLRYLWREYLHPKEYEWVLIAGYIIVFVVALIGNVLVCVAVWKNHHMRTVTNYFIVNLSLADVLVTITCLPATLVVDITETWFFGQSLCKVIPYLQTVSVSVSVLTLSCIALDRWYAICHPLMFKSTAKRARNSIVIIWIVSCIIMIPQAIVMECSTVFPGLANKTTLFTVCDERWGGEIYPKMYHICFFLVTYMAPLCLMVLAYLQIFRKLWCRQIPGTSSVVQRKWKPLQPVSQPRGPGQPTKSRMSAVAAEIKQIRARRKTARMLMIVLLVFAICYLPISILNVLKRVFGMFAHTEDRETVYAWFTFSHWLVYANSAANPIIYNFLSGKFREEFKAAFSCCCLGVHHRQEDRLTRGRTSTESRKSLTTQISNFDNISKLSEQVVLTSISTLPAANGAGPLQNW

IC50 [1]: 0.27 µM | IC50 (Orexin receptor type 2): > 10 µM
Structure (SMILES): Cc1ccc(-n2nccn2)c(C(=O)N[C@@H]2CCC[C@@H]2Nc2ccc(Cl)cn2)c1
